Experimental findings from patent US20190216827A1, “Composite Formulation of Dutasteride and Tadalafil Comprising Glycerol Fatty Acid Ester Derivative or Propylene Glycol Fatty Acid Ester Derivative and Oral Capsule Formulation Comprising the Same” (Yuyu Pharma, Inc., priority 2016, published 2019) are described below.

A short description of data set [1]: Solubility test of dutasteride and tadalafil in oils. In kind it is physicochemical. The note with it: room temperature, stirring for 24 hours; for solubility at 24 h: oil or lipid, thermodynamic from solid.
Assay in data set [2]: as above
The note with it: for solubility in a general oil: castor oil or soybean oil; for solubility at 24 h: oil or lipid, thermodynamic from solid; for solubility at 24 h / Solubility: room temperature, stirring for 24 hours. In kind it is physicochemical. As for the experimental part: In order to determine the solubility of dutasteride and tadalafil in oils, the solubilities to soybean oil, castor oil, glycerol monooleate, glycerol caprylate/caprate, propylene glycol monocaprylate and propylene glycol monolaurate were measured. A magnetic bar was placed in a 10 ml, vial, and 3 ml, of oil was added thereto. Then, while the mixture was stirred at room temperature, 100 mg of the main component was added thereto and the mixture was stirred at 500 rpm or higher. After stirring for 24 hours, only a supernatant was taken by a centrifugal separator, and an amount of the main component dissolved in the oil phase was quantitated by using a liquid chromatograph.

[3] abbreviates: in glycerol caprylate/caprate, glycerol monooleate, propylene glycol monocaprylate and propylene glycol monolaurate.
Setting [4] is: in glycerol fatty acid ester derivative or propylene glycol fatty acid ester derivative as oil component.

Values after ≈ are worked out from the molar mass of the structure shown.

Broadly, the solubility is how much of the substance goes into solution per volume. A lower solubility goes with a poorly soluble substance. For orientation: Solubility means the dissolved amount per volume that the medium holds.

Regarding `CN1CC(=O)N2[C@H](c3ccc4c(c3)OCO4)c3[nH]c4ccccc4c3C[C@@H]2C1=O` [tadalafil, 6R-trans-6-(1,3-benzodioxol-5-yl)-2,3,6,7,12,12a-hexahydro-2-methyl-pyrazino [1′,2′:1,6] pyrido[3,4-b]indole-1,4-dione], the solubility at 24 h in data set [1] (glycerol tricaprylate (oil), solvent Glycerol tricaprylate) amounted to 400 µg/mL (≈ 1030 µM); in data set [1] (propylene glycol dicaprylate (oil), solvent Propylene glycol dicaprylate), 440 µg/mL (≈ 1130 µM); in data set [2] (glycerol caprylate/caprate (oil), solvent Glycerol caprylate/caprate) it was 4130 µg/mL (≈ 10600 µM); in data set [2] (glycerol monooleate (oil), solvent Glycerol monooleate), 1110 µg/mL (≈ 2850 µM); in data set [2] (solvent Castor oil) it was 1030 µg/mL (≈ 2650 µM); in data set [2] (solvent Soybean oil) it was 240 µg/mL (≈ 616 µM). The solubility at 24 h in data set [2] (propylene glycol dicaprate (oil), solvent Propylene glycol dicaprate) turned out to be 270 µg/mL (≈ 693 µM); in data set [2] (propylene glycol monocaprylate (oil), solvent Propylene glycol monocaprylate), 4090 µg/mL (≈ 10500 µM); in data set [2] (propylene glycol monolaurate (oil), solvent Propylene glycol monolaurate) it was 1030 µg/mL (≈ 2650 µM). For the same compound, in data set [2], the “solubility in a general oil” value is on record as “low”. Besides, the “solubility of tadalafil relative to that of dutasteride” value in data set [2] (setting [3]) was “⅓”. Moreover, the “solubility of tadalafil relative to the solubility of dutasteride” value in data set [2] (setting [4]) is “½”.
For the compound “17β-N-(2,5-bis (trifluoromethyl)) phenylcarbamoyl-4-aza-5α-androst-1-en-3-one [dutasteride]”, the Solubility in data set [1] (solvent Glycerol tricaprylate) was 840 µg/mL; in data set [2] (solvent Castor oil), 1500 µg/mL; in data set [2] (solvent Glycerol caprylate/caprate), 14340 µg/mL; in data set [2] (solvent Glycerol monooleate), 4580 µg/mL; in data set [2] (solvent Propylene glycol dicaprate), 770 µg/mL; in data set [2] (solvent Propylene glycol dicaprylate) it was 1130 µg/mL. In addition, the Solubility in data set [2] (solvent Propylene glycol monocaprylate) amounted to 20980 µg/mL; in data set [2] (solvent Propylene glycol monolaurate) it was 9340 µg/mL. In addition, in data set [2], the “solubility in a general oil” value is “low”. Moreover, the solubility of dutasteride in data set [2] (setting [3]) is not below 2500 µg/mL; in data set [2] (setting [4]) it was not below 1000 µg/mL.
